Data from patent publication US7058616B1, “Method and system for predicting resistance of a disease to a therapeutic agent using a neural network” (Virco Bvba, priority 2000, dated 2006).

How the values were obtained:
HIV-1 [1] = details: cited from earlier work
HIV-1 [2] = test: MT-4 cell viral cytopathic effect protection assay, phenotypic susceptibility of patient recombinant virus; format: cell-based
Description: Phenotypic susceptibility was determined using a MT-4 cell viral cytopathic effect protection assay. See, e.g., Kashiwase et al., Chemotherapy 45(1):48–55 (1999), expressly incorporated herein by reference; Larder et al., Antimicrob. Agents Chemother. 43(8):1961–1967 (1999).

Cc1cn([C@H]2C[C@H](N=[N+]=[N-])[C@@H](CO)O2)c(=O)[nH]c1=O [AZT, 3′-azido-3′-deoxythymidine]
Effect of M184V mutation on AZT resistance (HIV-1 [1]): reverses AZT resistance | Effect of 333D/E mutation (HIV-1 [1]; reverses the M184V effect): dual AZT/3TC resistance

CC(C)(C)NC(=O)[C@@H]1CN(Cc2cccnc2)CCN1C[C@@H](O)C[C@@H](Cc1ccccc1)C(=O)N[C@H]1c2ccccc2C[C@H]1O [Indinavir]
actual phenotype resistance level (HIV-1 [2]; PI test sample 4): R/R (if the value is greater than 10, it is considered to be ‘resistant’) | actual phenotype resistance level (HIV-1 [2]; PI test sample 5): R (if the value is greater than 10, it is considered to be ‘resistant’) | actual phenotype resistance level (HIV-1 [2]; PI test sample 6): S/S (A fold resistance of less than or equal to 4 is considered to be ‘sensitive’) | actual phenotype resistance level (HIV-1 [2]; PI test sample 7): S/S (A fold resistance of less than or equal to 4 is considered to be ‘sensitive’) | actual phenotype resistance level (HIV-1 [2]; PI test sample 8): S/S (A fold resistance of less than or equal to 4 is considered to be ‘sensitive’) | actual phenotype resistance level (HIV-1 [2]; PI test sample 9): S/S (A fold resistance of less than or equal to 4 is considered to be ‘sensitive’) | actual phenotype resistance level (HIV-1 [2]; PI test sample 10): S/S (A fold resistance of less than or equal to 4 is considered to be ‘sensitive’) | actual phenotype resistance level (HIV-1 [2]; PI test sample 11, listed as IDV): S (A fold resistance of less than or equal to 4 is considered to be ‘sensitive’) | actual phenotype resistance level (HIV-1 [2]; PI test sample 12): S/S (A fold resistance of less than or equal to 4 is considered to be ‘sensitive’) | actual phenotype resistance level (HIV-1 [2]; PI test sample 13): R/R (if the value is greater than 10, it is considered to be ‘resistant’) | actual phenotype resistance level (HIV-1 [2]; PI test sample 14): R/R (if the value is greater than 10, it is considered to be ‘resistant’) | actual phenotype resistance level (HIV-1 [2]; PI test sample 16): R/R (if the value is greater than 10, it is considered to be ‘resistant’) | actual phenotype resistance level (HIV-1 [2]; PI test sample 17): R/R (if the value is greater than 10, it is considered to be ‘resistant’) | actual phenotype resistance level (HIV-1 [2]; PI test sample 22): S (A fold resistance of less than or equal to 4 is considered to be ‘sensitive’) | actual phenotype resistance level (HIV-1 [2]; PI test sample 23): R/R (if the value is greater than 10, it is considered to be ‘resistant’) | actual phenotype resistance level (HIV-1 [2]; PI test sample 24): R/R (if the value is greater than 10, it is considered to be ‘resistant’) | actual phenotype resistance level (HIV-1 [2]; PI test sample 26): R/R (if the value is greater than 10, it is considered to be ‘resistant’) | actual phenotype resistance level (HIV-1 [2]; PI test sample 27): R/R (if the value is greater than 10, it is considered to be ‘resistant’) | actual phenotype resistance level (HIV-1 [2]; PI test sample 28): R/R (if the value is greater than 10, it is considered to be ‘resistant’) | actual phenotype resistance level (HIV-1 [2]; PI test sample 32): R/R (if the value is greater than 10, it is considered to be ‘resistant’) | actual phenotype resistance level (HIV-1 [2]; PI test sample 35): R/R (if the value is greater than 10, it is considered to be ‘resistant’) | actual phenotype resistance level (HIV-1 [2]; PI test sample 36): R/R (if the value is greater than 10, it is considered to be ‘resistant’) | actual phenotype resistance level (HIV-1 [2]; PI test sample 37): I/I (greater than 4 and less than 10 is considered to be ‘intermediate’) | actual phenotype resistance level (HIV-1 [2]; PI test sample 38): R/R (if the value is greater than 10, it is considered to be ‘resistant’) | actual phenotype resistance level (HIV-1 [2]; PI test sample 39): R/R (if the value is greater than 10, it is considered to be ‘resistant’) | actual phenotype resistance level (HIV-1 [2]; PI test sample 40): R/R (if the value is greater than 10, it is considered to be ‘resistant’) | actual phenotype resistance level (HIV-1 [2]; PI test sample 43): I/I (greater than 4 and less than 10 is considered to be ‘intermediate’) | actual phenotype resistance level (HIV-1 [2]; PI test sample 45): R/R (if the value is greater than 10, it is considered to be ‘resistant’) | actual phenotype resistance level (HIV-1 [2]; PI test sample 46): R/R (if the value is greater than 10, it is considered to be ‘resistant’) | actual phenotype resistance level (HIV-1 [2]; PI test sample 47, listed as IDV): R/R (if the value is greater than 10, it is considered to be ‘resistant’) | actual phenotype resistance level (HIV-1 [2]; PI test sample 48): R/R (if the value is greater than 10, it is considered to be ‘resistant’) | actual phenotype resistance level (HIV-1 [2]; PI test sample 49): R/R (if the value is greater than 10, it is considered to be ‘resistant’) | actual phenotype resistance level (HIV-1 [2]; PI test sample 51): R/R (if the value is greater than 10, it is considered to be ‘resistant’) | actual phenotype resistance level (HIV-1 [2]; PI test sample 53): R/R (if the value is greater than 10, it is considered to be ‘resistant’) | actual phenotype resistance level (HIV-1 [2]; Table 3 testing sample 1): S/S (A fold resistance of less than or equal to 4 is considered to be “sensitive,”) | actual phenotype resistance level (HIV-1 [2]; Table 3 testing sample 2): S/S (A fold resistance of less than or equal to 4 is considered to be “sensitive,”) | actual phenotype resistance level (HIV-1 [2]; Table 3 testing sample 5): R/R (if the value is greater than 10, it is considered to be “resistant.”) | actual phenotype resistance level (HIV-1 [2]; Table 3 testing sample 7): S/S (A fold resistance of less than or equal to 4 is considered to be “sensitive,”) | actual phenotype resistance level (HIV-1 [2]; Table 3 testing sample 9): S/S (A fold resistance of less than or equal to 4 is considered to be “sensitive,”) | actual phenotype resistance level (HIV-1 [2]; Table 3 testing sample 10): S (A fold resistance of less than or equal to 4 is considered to be “sensitive,”) | actual phenotype (HIV-1 [2]; Table 13/14 sample 2: 10I,46I,48V,77I,82A,90M, 10E,58E,63T): S (A fold resistance of less than or equal to 4 is considered to be ‘sensitive’) | actual phenotype (HIV-1 [2]; Table 13/14 sample 8: 10I,54V,71V,73S,84V,90M, 33M,63P): I (greater than 4 and less than 10 is considered to be ‘intermediate’) | actual phenotype (HIV-1 [2]; Table 13/14 sample 13: 10I,36I,71T,90M, 63P,73T): I (greater than 4 and less than 10 is considered to be ‘intermediate’) | actual phenotype (HIV-1 [2]; Table 13/14 sample 14: 10I,46I,71T,77I,90M, 57K,63P,93L): S (A fold resistance of less than or equal to 4 is considered to be ‘sensitive’) | actual phenotype (HIV-1 [2]; Table 13/14 sample 17: 46I,77I,90M, 10F,20L,63P): I (greater than 4 and less than 10 is considered to be ‘intermediate’) | actual phenotype (HIV-1 [2]; Table 13/14 sample 18: 36I,71T,90M, 63P,93L): S (A fold resistance of less than or equal to 4 is considered to be ‘sensitive’) | actual phenotype (HIV-1 [2]; Table 13/14 sample 20: 77I,88S, 13V, 63P, 93L): S (A fold resistance of less than or equal to 4 is considered to be ‘sensitive’) | actual phenotype (HIV-1 [2]; Table 13/14 sample 21: 10I,77I,84V,90M, 63Q): I (greater than 4 and less than 10 is considered to be ‘intermediate’) | actual phenotype (HIV-1 [2]; Table 13/14 sample 22: 10I,20R,36I,71V,73S,84V,90M, 13V,63P): R (if the value is greater than 10, it is considered to be ‘resistant’)

CC(C)(C)NC(=O)[C@@H]1C[C@@H]2CCCC[C@@H]2CN1C[C@@H](O)[C@H](Cc1ccccc1)NC(=O)[C@H](CC(N)=O)NC(=O)c1ccc2ccccc2n1 [Saquinavir]
actual phenotype (HIV-1 [2]; Table 13/14 sample 1: 10I,71V,73S,84V,90M, 63P,85V,93L): R (if the value is greater than 10, it is considered to be ‘resistant’) | actual phenotype (HIV-1 [2]; Table 13/14 sample 9: 10I,46L,54V,71V,82A,90M, 63P,93L): S (A fold resistance of less than or equal to 4 is considered to be ‘sensitive’) | actual phenotype (HIV-1 [2]; Table 13/14 sample 11: 10I,46L,54V,71V,77I,82A,90M, 55R,58E,63P,93L): R (if the value is greater than 10, it is considered to be ‘resistant’) | actual phenotype (HIV-1 [2]; Table 13/14 sample 19: 54V,71V,82A, 63P,93L): I (greater than 4 and less than 10 is considered to be ‘intermediate’)
